For 18 compounds, T/C results are on record in PubChem BioAssay AID328 (DTP/NCI, 2004).

“And” between values parts separate entries of the source, which are not always exact repeats. Equal entries are not always repeated. Inconclusive results and toxic doses are left out. Starred links: 1 amine or outer side, 2 acyl side, 3 side chain; linkers in the order of their positions; H or OH if unused. Positions of bridges follow the written chain, without caps; N, C: chain ends. Non-standard residues stand in square brackets, D forms with d. Residues, ends and D or L forms follow the SMILES beside them. Chains are numbered I, II in the order given. Actinocin(9to1) = Cc1c2oc3c(C)ccc(C(=O)[*:1])c3nc-2c(C(=O)[*:2])c(N)c1=O; NMeV = CN[CH](C(=O)O)C(C)C; Sar = CNCC(=O)O

This assay concerns BDF1 mice, P388 leukemia ip, median survival T/C. In words: NCI In Vivo Anticancer Drug Screen. Data for tumor model P388 Leukemia (intraperitoneal) in B6D2F1 (BDF1) mice. The settings on record: endpoint: median survival time, higher = longer survival. The method in brief: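 Mice carrying the transplantable tumour receive compound or vehicle. Survival is followed in each arm, and the treated measure is divided by the vehicle measure.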

[1] abbreviates: dose: 50.0 mg/kg/injection, schedule: Q01DX009 (ip), vehicle: Klucel (hydroxypropylcellulose) (HPC).
Setting [2] is: dose: 100.0 mg/kg/injection, schedule: Q01DX009 (ip), vehicle: Klucel (hydroxypropylcellulose) (HPC).
Where [3] appears, read: dose: 100.0 mg/kg/injection, schedule: Q04DX003 (ip), vehicle: other.
The mark [4] stands for this setting: dose: 200.0 mg/kg/injection, schedule: Q01DX009 (ip), vehicle: Klucel (hydroxypropylcellulose) (HPC).
Setting [5] is: dose: 400.0 mg/kg/injection, schedule: Q04DX003 (ip), vehicle: other.
The mark [6] stands for this setting: dose: 25.0 mg/kg/injection, schedule: Q01DX009 (ip), vehicle: Klucel (hydroxypropylcellulose) (HPC).
The mark [7] stands for this setting: dose: 100.0 mg/kg/injection, schedule: Q04DX003 (ip), vehicle: Klucel (hydroxypropylcellulose) (HPC).
[8] abbreviates: dose: 200.0 mg/kg/injection, schedule: Q04DX003 (ip), vehicle: Klucel (hydroxypropylcellulose) (HPC).
Setting [9] is: dose: 100.0 mg/kg/injection, schedule: Q01DX001 (ip), vehicle: Klucel (hydroxypropylcellulose) (HPC).
[10] abbreviates: dose: 200.0 mg/kg/injection, schedule: Q01DX001 (ip), vehicle: Klucel (hydroxypropylcellulose) (HPC).
[11] abbreviates: dose: 100.0 mg/kg/injection, schedule: Q01DX009 (ip), vehicle: saline with Tween-80.
Where [12] appears, read: dose: 200.0 mg/kg/injection, schedule: Q01DX009 (ip), vehicle: saline with Tween-80.
The mark [13] stands for this setting: dose: 50.0 mg/kg/injection, schedule: Q01DX009 (ip), vehicle: saline with Tween-80.

`CC(=O)O[C@]1(C(C)=O)CC[C@H]2[C@@H]3C[C@H](C)C4=CC(=O)CC[C@]4(C)[C@H]3CC[C@@]21C`: the T/C was 103 % of control under setting [1]; 111 % of control under setting [2]; 110 % of control under setting [3]; 94 % of control and 95 % of control under setting [4]; 100 % of control (dose: 200.0 mg/kg/injection, schedule: Q04DX003 (ip), vehicle: other); 87 % of control (dose: 400.0 mg/kg/injection, schedule: Q01DX009 (ip), vehicle: Klucel (hydroxypropylcellulose) (HPC)). Moreover, the T/C under setting [5] was 115 % of control.

In the case of `O=[N+]([O-])/C=C\c1ccc2c(c1)OCO2`, the T/C is 111 % of control and 120 % of control under setting [6]; 105 % of control (dose: 35.0 mg/kg/injection, schedule: Q01DX009 (ip), vehicle: Klucel (hydroxypropylcellulose) (HPC)); 95 % of control (dose: 75.0 mg/kg/injection, schedule: Q01DX009 (ip), vehicle: Klucel (hydroxypropylcellulose) (HPC)); 100 % of control and 105 % of control under setting [2]; 104 % of control under setting [7]; 108 % of control under setting [8].

With `CC[C@H](c1ccc(O)cc1)[C@@H](CC)c1ccc(O)cc1`, the T/C was 90 % of control under setting [1]; 100 % of control under setting [2]; 100 % of control under setting [3]; 104 % of control and 120 % of control (dose: 132.0 mg/kg/injection, schedule: Q04DX003 (ip), vehicle: Klucel (hydroxypropylcellulose) (HPC)); 104 % of control under setting [4]; 104 % of control and 120 % of control under setting [8]. Further, the T/C was 109 % of control and 110 % of control (dose: 300.0 mg/kg/injection, schedule: Q04DX003 (ip), vehicle: Klucel (hydroxypropylcellulose) (HPC)); 105 % of control under setting [5].

With `CCOc1nsc(OCC)n1`, the T/C runs as follows: under setting [9], 86 % of control; under setting [10], 104 % of control.

Turning to `CCOC(=O)C(Cc1ccccc1)P(=O)(OCC)OCC` (stereo not given), the T/C was 109 % of control under setting [11] and 104 % of control under setting [12].

With `O=S(=O)(O)c1ccc(-c2ccccc2)cc1`, the T/C under setting [6] was 95 % of control, the T/C under setting [1] is 87 % of control, the T/C under setting [2] was 95 % of control and the T/C under setting [7] is 88 % of control.

For the compound `Cc1c2oc3c(C)ccc(C(=O)NC4C(=O)NC(C(C)C)C(=O)N(C)CC(=O)N(C)CC(=O)N(C)C(C(C)C)C(=O)OC4C)c3nc-2c(C(=O)NC2C(=O)NC(C(C)C)C(=O)N(C)CC(=O)N(C)CC(=O)N(C)C(C(C)C)C(=O)OC2C)c(N)c1=O` (stereo not given) (I: TV[Sar][Sar][NMeV] / II: TV[Sar][Sar][NMeV]; ester I:1-I:C, II:1-II:C; linker I:N-II:N via Actinocin(9to1); configuration not given here), the T/C is, setting by setting: (dose: 125.0 micrograms/kg/injection, schedule: Q01DX009 (ip), vehicle: saline + alcohol) 190 % of control; (dose: 250.0 micrograms/kg/injection, schedule: Q01DX009 (ip), vehicle: saline + alcohol) 233 % of control; (dose: 500.0 micrograms/kg/injection, schedule: Q01DX009 (ip), vehicle: saline + alcohol) 239 % of control; (dose: 750.0 micrograms/kg/injection, schedule: Q04DX003 (ip), vehicle: saline + alcohol) 218 % of control; (dose: 1500.0 micrograms/kg/injection, schedule: Q04DX003 (ip), vehicle: saline + alcohol) 239 % of control and 166 % of control; (dose: 3000.0 micrograms/kg/injection, schedule: Q04DX003 (ip), vehicle: saline + alcohol) 175 % of control.

As to `C[CH2][Sn]([c]1ccccc1)([c]1ccccc1)[c]1ccccc1`, the T/C is, setting by setting: (dose: 12.5 mg/kg/injection, schedule: Q01DX009 (ip), vehicle: saline with Tween-80) 104 % of control; (dose: 25.0 mg/kg/injection, schedule: Q01DX009 (ip), vehicle: saline with Tween-80) 109 % of control; under setting [13], 104 % of control.

Turning to `NC(Cc1cc(Cl)c(O)c(Cl)c1)C(=O)O` (stereo not given), the T/C (dose: 100.0 mg/kg/injection, schedule: Q01DX009 (ip), vehicle: saline) was 94 % of control; the T/C (dose: 150.0 mg/kg/injection, schedule: Q01DX009 (ip), vehicle: saline) was 97 % of control; the T/C (dose: 200.0 mg/kg/injection, schedule: Q01DX009 (ip), vehicle: saline) was 105 % of control.

With `NC(=O)c1cc(OCc2ccccc2)nc2nc(Cl)nc(N)c12`, the T/C runs as follows: under setting [13], 100 % of control; under setting [11], 96 % of control; under setting [12], 110 % of control.

For `CCOC(=O)C(C(C)=O)C(C)C` (stereo not given), the T/C was 112 % of control (dose: 100.0 mg/kg/injection, schedule: Q01DX005 (ip), vehicle: other); 117 % of control (dose: 200.0 mg/kg/injection, schedule: Q01DX005 (ip), vehicle: other); 109 % of control (dose: 400.0 mg/kg/injection, schedule: Q01DX005 (ip), vehicle: other).

Consider `CC[N+](CC)(CC)CC`, for which the T/C runs as follows: (dose: 3.13 mg/kg/injection, schedule: Q01DX009 (ip), vehicle: saline with Tween-80) 110 % of control; (dose: 6.0 mg/kg/injection, schedule: Q01DX009 (ip), vehicle: saline with Tween-80) 183 % of control; (dose: 9.0 mg/kg/injection, schedule: Q01DX009 (ip), vehicle: saline with Tween-80) 94 % of control; (dose: 12.5 mg/kg/injection, schedule: Q01DX009 (ip), vehicle: saline) 107 % of control; (dose: 12.5 mg/kg/injection, schedule: Q04DX003 (ip), vehicle: saline) 95 % of control; (dose: 25.0 mg/kg/injection, schedule: Q01DX009 (ip), vehicle: saline) 107 % of control. Moreover, the T/C was 91 % of control (dose: 25.0 mg/kg/injection, schedule: Q04DX003 (ip), vehicle: saline); 92 % of control (dose: 50.0 mg/kg/injection, schedule: Q01DX009 (ip), vehicle: saline); 100 % of control (dose: 50.0 mg/kg/injection, schedule: Q04DX003 (ip), vehicle: saline).

For `CCOC(/C=C/c1ccccc1)OCC`, the T/C was 90 % of control (dose: 264.0 mg/kg/injection, schedule: Q04DX003 (ip), vehicle: saline); 100 % of control (dose: 400.0 mg/kg/injection, schedule: Q04DX003 (ip), vehicle: saline); 113 % of control (dose: 600.0 mg/kg/injection, schedule: Q04DX003 (ip), vehicle: saline).

As to `CN1C(=O)Cc2[nH]ccc2C1=O`, the T/C (dose: 3.13 mg/kg/injection, schedule: Q04DX003 (ip), vehicle: saline with Tween-80) is 106 % of control; the T/C (dose: 6.25 mg/kg/injection, schedule: Q04DX003 (ip), vehicle: saline with Tween-80) is 109 % of control; the T/C (dose: 12.5 mg/kg/injection, schedule: Q04DX003 (ip), vehicle: saline with Tween-80) was 119 % of control and 120 % of control; the T/C (dose: 25.0 mg/kg/injection, schedule: Q04DX003 (ip), vehicle: saline with Tween-80) is 118 % of control.

On to `O=C(CN1CC1)NCCCCCCCCCNC(=O)CN1CC1`, for which the T/C by setting is: (dose: 8.0 mg/kg/injection, schedule: Q04DX003 (ip), vehicle: saline) 122 % of control; (dose: 12.0 mg/kg/injection, schedule: Q04DX003 (ip), vehicle: saline) 122 % of control; (dose: 18.0 mg/kg/injection, schedule: Q04DX003 (ip), vehicle: saline) 122 % of control; (dose: 18.75 mg/kg/injection, schedule: Q04DX003 (ip), vehicle: saline sonified) 218 % of control; (dose: 37.5 mg/kg/injection, schedule: Q04DX003 (ip), vehicle: saline sonified) 172 % of control.

Turning to `Nc1nc(N)c(-c2ccccc2)c(C(=O)O)n1`, the T/C by setting is: under setting [9], 109 % of control; under setting [10], 118 % of control; (dose: 400.0 mg/kg/injection, schedule: Q01DX001 (ip), vehicle: Klucel (hydroxypropylcellulose) (HPC)) 113 % of control.

Turning to `CC(C)(C)c1ccc(OCc2cnc[nH]2)cc1`, the T/C (dose: 100.0 mg/kg/injection, schedule: Q01DX001 (ip), vehicle: saline) was 113 % of control.

For the compound `O=C(c1ccccc1)C1CN(C2CCCC2)C1c1ccccc1` (stereo not given), the T/C under setting [13] is 91 % of control, the T/C under setting [11] is 92 % of control and the T/C under setting [12] was 91 % of control.
